Data published in ChEMBL document CHEMBL1156320, “Discovery of novel (S)-alpha-phenyl-gamma-amino butanamide containing CCR5 antagonists via functionality inversion approach” (Bioorg Med Chem Lett, 2010).
Calls of active or inactive are those of the source. The calls are words filed in the database; no cut-off is given here.

Experiments:
Assay type in all cases: functional, cell-based
[1] = target: T1, C-C chemokine receptor type 5 (Homo sapiens, UniProt P51681); assay: Antagonist activity at CCR5 receptor expressed in CHO cells assessed as inhibition of RANTES-induced […]GTPgammaS binding at 300 nM
Target sequence in this assay (P51681 whole entry, looked up): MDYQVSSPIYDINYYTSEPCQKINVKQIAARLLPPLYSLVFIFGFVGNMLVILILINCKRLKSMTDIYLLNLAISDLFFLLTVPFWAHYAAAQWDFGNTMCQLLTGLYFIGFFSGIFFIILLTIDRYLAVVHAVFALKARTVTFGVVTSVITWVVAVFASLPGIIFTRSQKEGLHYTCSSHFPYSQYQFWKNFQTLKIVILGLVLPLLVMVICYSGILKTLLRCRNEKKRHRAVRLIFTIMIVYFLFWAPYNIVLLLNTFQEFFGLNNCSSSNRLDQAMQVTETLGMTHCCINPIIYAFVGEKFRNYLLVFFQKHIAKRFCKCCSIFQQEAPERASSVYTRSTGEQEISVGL

[2] = target: T1, C-C chemokine receptor type 5; assay: Antagonist activity at CCR5 receptor expressed in CHO cells assessed as inhibition of RANTES-induced […]GTPgammaS binding
[3] = target: T1, C-C chemokine receptor type 5; assay: Antagonist activity at CCR5 receptor expressed in CHO cells assessed as inhibition of RANTES-induced […]GTPgammaS binding at 10 uM
Target sequence in this assay (P51681 whole entry, looked up): as above

Row | SMILES | inhibition [1] [%] | also measured
1 | Cc1nc2cccnc2n1[C@@H]1C[C@H]2CC[C@@H](C1)N2CC[C@H](C(=O)OCc1ccc(F)cc1)c1ccccc1 | 19 | –
2 | COC(=O)[C@@H](CCN1[C@@H]2CC[C@H]1C[C@@H](n1c(C)nc3cccnc31)C2)c1ccccc1 | 22 | IC50 [2]: 112 nM
3 | Cc1nc2cccnc2n1[C@@H]1C[C@H]2CC[C@@H](C1)N2CC[C@H](COCc1ccc(F)cc1)c1ccccc1 | 42 | –
4 | O=C(NCc1ccc(F)cc1)[C@@H](CCN1[C@@H]2CC[C@H]1C[C@H](n1nnc3cccnc31)C2)c1ccccc1 | 1 | –
5 | Cc1nc2cccnc2n1[C@H]1C[C@H]2CC[C@@H](C1)N2CC[C@H](C(=O)N1C(=O)OC[C@H]1Cc1ccccc1)c1ccccc1 (stereo in doubt; 1a) | 30 | –
6 | Cc1nc2cccnc2n1[C@@H]1C[C@H]2CC[C@@H](C1)N2CC[C@H](CO)c1ccccc1 | – | inhibition [3]: inactive
7 | COC(=O)[C@@H](CCN1[C@@H]2CC[C@H]1C[C@H](n1nnc3cccnc31)C2)c1ccccc1 | – | C50 [2]: > 10 µM
8 | Cc1nc2cccnc2n1[C@H]1C[C@H]2CC[C@@H](C1)N2CC[C@H](C(=O)N1C(=O)OC[C@H]1Cc1ccccc1)c1ccccc1 (stereo in doubt; 1b) | 10 | –
9 | Cc1nc2cccnc2n1[C@H]1C[C@H]2CC[C@@H](C1)N2CC[C@H](C(=O)NCc1ccc(F)cc1)c1ccccc1 | 30 | IC50 [2]: 14.4 nM
